These are literature values, as cited in patent publication US20140187648A1, “Identifying Subjects in Need of Treatment” (HOWARD FOUNDATION HOLDINGS LTD., priority 2013, published 2014).

The test system of this data set is subjects who exhibit an abnormally low concentration of MP in the central portion of the retina.

For `CC1=C[C@H](O)CC(C)(C)[C@H]1/C=C/C(C)=C/C=C/C(C)=C/C=C/C=C(C)/C=C/C=C(C)/C=C/C1=C(C)C[C@@H](O)CC1(C)C` [lutein, reference compound], the “effect on MP” value (subjects with abnormally low MP in the central portion of the retina) is “little effect”.
Take meso-zeaxanthin [MZ]: the “MP levels outside the central portion of the retina” value (subjects with abnormally low central MP) is “little effect”. Besides, the “MP levels in the central portion of the retina” value (subjects with abnormally low central MP, eccentricity 0.25° or less) is “return MP levels in the central portion of the retina substantially to normal”.
